Assay results reported in PubChem BioAssay (NCI).
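Dose response: 5 concentrations. Exposure: 48 h. Format: 96-well plates. Endpoint: linear interpolation; highest concentration if not reached. TGI is the concentration that stops growth completely.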

Assays:
Assay in all cases: NCI tumour cell line growth inhibition, 48 h
MCF7 breast = system: MCF7 breast
MDA-MB-231 breast = system: MDA-MB-231 breast
EKVX NSCLC = system: EKVX NSCLC
M14 melanoma = system: M14 melanoma
KM12 colon = system: KM12 colon
T-47D breast = system: T-47D breast
HS 578T breast = system: HS 578T breast
OVCAR-4 ovarian = system: OVCAR-4 ovarian
ACHN renal = system: ACHN renal
SN12C renal = system: SN12C renal
MDA-MB-435 = system: MDA-MB-435
OVCAR-5 ovarian = system: OVCAR-5 ovarian
K-562 leukemia = system: K-562 leukemia
A549 NSCLC = system: A549 NSCLC
UACC-257 melanoma = system: UACC-257 melanoma
BT-549 breast = system: BT-549 breast
HOP-62 NSCLC = system: HOP-62 NSCLC
CAKI-1 renal = system: CAKI-1 renal
SK-MEL-2 melanoma = system: SK-MEL-2 melanoma
HT29 colon = system: HT29 colon
HCC-2998 colon = system: HCC-2998 colon
SF-539 CNS = system: SF-539 CNS
HCT-15 colon = system: HCT-15 colon
OVCAR-3 ovarian = system: OVCAR-3 ovarian
SR leukemia = system: SR leukemia
HOP-92 NSCLC = system: HOP-92 NSCLC
UACC-62 melanoma = system: UACC-62 melanoma
PC-3 prostate = system: PC-3 prostate
TK-10 renal = system: TK-10 renal
SNB-19 CNS = system: SNB-19 CNS
UO-31 renal = system: UO-31 renal
SK-MEL-28 melanoma = system: SK-MEL-28 melanoma
A498 renal = system: A498 renal
DU-145 prostate = system: DU-145 prostate
NCI-H23 lung = system: NCI-H23 lung
NCI-H460 lung = system: NCI-H460 lung
RXF 393 renal = system: RXF 393 renal
HL-60(TB) leukemia = system: HL-60(TB) leukemia
NCI/ADR-RES ovarian = system: NCI/ADR-RES ovarian
MDA-N = system: MDA-N
RPMI-8226 leukemia = system: RPMI-8226 leukemia
LOX IMVI melanoma = system: LOX IMVI melanoma
IGROV1 ovarian = system: IGROV1 ovarian
786-0 renal = system: 786-0 renal
CCRF-CEM leukemia = system: CCRF-CEM leukemia
U251 CNS = system: U251 CNS
OVCAR-8 ovarian = system: OVCAR-8 ovarian
SK-MEL-5 melanoma = system: SK-MEL-5 melanoma
COLO 205 colon = system: COLO 205 colon
SK-OV-3 ovarian = system: SK-OV-3 ovarian
HCT-116 colon = system: HCT-116 colon
SF-268 CNS = system: SF-268 CNS
NCI-H226 lung = system: NCI-H226 lung
MOLT-4 leukemia = system: MOLT-4 leukemia
SF-295 CNS = system: SF-295 CNS
NCI-H522 lung = system: NCI-H522 lung
SW-620 colon = system: SW-620 colon
MALME-3M melanoma = system: MALME-3M melanoma
SNB-75 CNS = system: SNB-75 CNS

Cc1c(C(=O)OCc2ccccc2)[n+](=O)c2cc(Cl)c(Cl)cc2n1[O-]
TGI (MCF7 breast): 54.4 µM
TGI (MDA-MB-231 breast): 38.2 µM
TGI (EKVX NSCLC): 28.6 µM
TGI (M14 melanoma): 28.3 µM
TGI (KM12 colon): 24.6 µM
TGI (T-47D breast): 23.6 µM
TGI (HS 578T breast): 47.4 µM
TGI (OVCAR-4 ovarian): 26.9 µM
TGI (ACHN renal): 53.7 µM
TGI (SN12C renal): 45.3 µM
TGI (MDA-MB-435): 42.4 µM
TGI (OVCAR-5 ovarian): 39.2 µM
TGI (K-562 leukemia): 57.6 µM
TGI (A549 NSCLC): 28 µM
TGI (UACC-257 melanoma): 29.6 µM
TGI (BT-549 breast): 44.4 µM
TGI (HOP-62 NSCLC): 30.5 µM
TGI (CAKI-1 renal): 28.2 µM
TGI (SK-MEL-2 melanoma): 38.6 µM
TGI (HT29 colon): 32.2 µM
TGI (HCC-2998 colon): 28.5 µM
TGI (SF-539 CNS): 55.9 µM
TGI (HCT-15 colon): 34.1 µM
TGI (OVCAR-3 ovarian): 25 µM
TGI (SR leukemia): 21.4 µM
TGI (HOP-92 NSCLC): 20 µM
TGI (UACC-62 melanoma): 31 µM
TGI (PC-3 prostate): 55 µM
TGI (TK-10 renal): 40.3 µM
TGI (SNB-19 CNS): 68.1 µM
TGI (UO-31 renal): 32 µM
TGI (SK-MEL-28 melanoma): 64.8 µM
TGI (A498 renal): 35.6 µM
TGI (DU-145 prostate): 27.6 µM
TGI (NCI-H23 lung): 32.5 µM
TGI (NCI-H460 lung): 30.7 µM
TGI (RXF 393 renal): 36 µM
TGI (HL-60(TB) leukemia): 27.3 µM
TGI (NCI/ADR-RES ovarian): 48.4 µM
TGI (MDA-N): 40.7 µM
TGI (RPMI-8226 leukemia): 21.2 µM
TGI (LOX IMVI melanoma): 35.7 µM
TGI (IGROV1 ovarian): 19 µM
TGI (786-0 renal): 30.5 µM
TGI (CCRF-CEM leukemia): 39.4 µM
TGI (U251 CNS): > 100 µM
TGI (OVCAR-8 ovarian): 46.5 µM
TGI (SK-MEL-5 melanoma): 28.2 µM
TGI (COLO 205 colon): 32.2 µM
TGI (SK-OV-3 ovarian): 60 µM
TGI (HCT-116 colon): 27.2 µM
TGI (SF-268 CNS): 39.8 µM
TGI (NCI-H226 lung): 20.1 µM
TGI (MOLT-4 leukemia): 21.5 µM
TGI (SF-295 CNS): 37.4 µM

CCOC(=O)Nn1c(CC#N)nnc1Cc1ccccc1
TGI (MCF7 breast): > 100 µM
TGI (MDA-MB-231 breast): > 100 µM
TGI (M14 melanoma): > 100 µM
TGI (KM12 colon): > 100 µM
TGI (T-47D breast): > 100 µM
TGI (NCI-H522 lung): > 100 µM
TGI (HS 578T breast): > 100 µM
TGI (ACHN renal): > 100 µM
TGI (SN12C renal): > 100 µM
TGI (MDA-MB-435): > 100 µM
TGI (OVCAR-5 ovarian): > 100 µM
TGI (K-562 leukemia): > 100 µM
TGI (A549 NSCLC): > 100 µM
TGI (UACC-257 melanoma): > 100 µM
TGI (BT-549 breast): > 100 µM
TGI (HOP-62 NSCLC): > 100 µM
TGI (CAKI-1 renal): > 100 µM
TGI (SK-MEL-2 melanoma): > 100 µM
TGI (HT29 colon): > 100 µM
TGI (HCC-2998 colon): > 100 µM
TGI (SF-539 CNS): > 100 µM
TGI (HCT-15 colon): > 100 µM
TGI (OVCAR-3 ovarian): > 100 µM
TGI (SR leukemia): > 100 µM
TGI (SW-620 colon): > 100 µM
TGI (HOP-92 NSCLC): > 100 µM
TGI (UACC-62 melanoma): > 100 µM
TGI (PC-3 prostate): > 100 µM
TGI (TK-10 renal): > 100 µM
TGI (SNB-19 CNS): > 100 µM
TGI (UO-31 renal): > 100 µM
TGI (SK-MEL-28 melanoma): > 100 µM
TGI (DU-145 prostate): > 100 µM
TGI (NCI-H23 lung): > 100 µM
TGI (NCI-H460 lung): > 100 µM
TGI (RXF 393 renal): > 100 µM
TGI (HL-60(TB) leukemia): > 100 µM
TGI (NCI/ADR-RES ovarian): > 100 µM
TGI (MDA-N): > 100 µM
TGI (RPMI-8226 leukemia): > 100 µM
TGI (IGROV1 ovarian): > 100 µM
TGI (786-0 renal): > 100 µM
TGI (MALME-3M melanoma): > 100 µM
TGI (U251 CNS): > 100 µM
TGI (OVCAR-8 ovarian): > 100 µM
TGI (SK-MEL-5 melanoma): > 100 µM
TGI (HCT-116 colon): > 100 µM
TGI (SF-268 CNS): > 100 µM
TGI (NCI-H226 lung): > 100 µM
TGI (MOLT-4 leukemia): > 100 µM
TGI (SNB-75 CNS): > 100 µM
TGI (SF-295 CNS): > 100 µM
